Measurements from patent US12241094B2, “Phenazine degrading agents and related compositions, methods and systems for interfering with viability of bacteria” (priority 2016, dated 2025).
Entries after “also recorded” stand apart in the source; their conditions may differ. Marks after values point to notes of the source that are not given here.

B1: Y156F (protein)
chain: MTGKTKPAIIGGVAITALAAAGLGVWLFTDGRGGRSTTEPVTMTLDVKNDQVAKHDFGKPGMDVGDMDIFSDILSVDGKQVGYDGGACFFTNVTPDNPMTYCELTIHLDAGEIFARSLTPHTLAPFTMAITGGTGEYANSKGELTVSGVATPDEKFELKLTK

Key:
PA14 [1] = experiment: Redox cycles over 7 days and support of survival (Table 1); type: cell-based, P. aeruginosa
PA14 [2] = experiment: Reduction of redox-active compounds by PA14 (Table 1); type: cell-based, P. aeruginosa
[3] = oxidized form, values from references a, c, d; cited from earlier work
PodA30-162 = experiment: Alternative substrate utilization by PodA; type: biochemical, Mycobacterium fortuitum; conditions: for demethylation of alternative substrate by PodA30-162 (HPLC end point): 50 μg mL^−1 PodA30-162, 4 hours, dark
Method: Chemical formula diagrams of methylated substrates and their expected demethylated products, based on the prediction model, are shown, wherein arrows indicate demethylation catalyzed by PodA. Mixtures were analyzed by HPLC (right graphs) after 4 hours to determine the resulting products of each reaction. Standards for each product were run to determine retention times (indicated for each molecule with arrows). Only N-methylated phenazines were altered by incubation with PodA30-162. […] PMS, phenazine methosulfate.
Enzyme activity and analysis. PYO demethylation by PodA30-162 was first determined by HPLC analysis as described previously (6, 9). To detect formaldehyde evolution, 150 nM protein was mixed with 50 μM PYO in 1 mL of 20 mM Tris pH 7.6 amended with 200 μL Nash reagent (2 M ammonium acetate, 50 mM acetic acid, 20 mM acetylacetone) and incubated at 55° C. until the reaction proceeded to completion (37, 38). The products were determined by HPLC using the same method as used for phenazine quantification. To monitor the formation of reduced phenazine, protein and 50 μM PYO were placed into an anaerobic chamber (Coy Laboratory Products) under an atmosphere of H2/N2 (5:95) and left overnight before allowing the reaction to proceed. […] A BioTek Synergy 4 microplate reader (BioTek) plate reader in the anaerobic chamber was used to measure the emission spectrum of products with excitation at 250 nm. […] Reaction progress was monitored by measuring absorbance at 313 nm (40) every 0.5 seconds for 5 minutes. […] Kinetic parameters were calculated in Microsoft Excel using the Solver plug-in and fitting data to ideal Michaelis-Menton plots with non-linear regression of experimental data (41). For measurements of the rate of methoxy-PMS demethylation, 300 nM protein was used and methoxy-PMS loss from the reaction mixture was monitored at 500 nm wavelength. […] The stimulatory effects of flavin or 2-oxoglutarate addition was determined by adding 25 μM flavin or 2-oxoglutarate to 20 μM PYO and 15 nM PodA30-162 and monitoring the reaction. […]

[4] = system: P. aeruginosa PA14 biofilms; experiment: Biofilm formation, surface coverage (chambered coverglass, DAPI); type: cell-based; conditions: 5 hours; PodA30-162 2 μg mL^−1, DNase 20 μg mL^−1; vs. PodA-inactive
Method: Biofilm experiments. For all experiments involving inactivated PodA, either the E154A mutant or PodA30-162 that was subjected to a 1 hour treatment at 98° C. was used. To test the ability of PodA30-162 to degrade PYO in the presence of DNA, genomic DNA (gDNA) from P. aeruginosa PA14 was used in modified versions of previously described assays (59). For experiments using DNA pellets, 0.5 mg of gDNA was pelleted in the presence of 300 mM sodium acetate, pH 5.2 and 70% ethanol. Pellets were washed with 70% ethanol and dried. 200 μL of 800 μM PYO was added to the gDNA pellet without mixing and left to sit at room temperature for 6 hours to allow for diffusion of PYO into the gDNA pellet. The pellet was washed once with 70% EtOH, and submerged in a solution containing 10 mM Tris, pH 7.0 and 40% isopropanol. The pellet remained blue, consistent with an association of PYO with DNA. PodA30-162 was added to the isopropanol solution to a final concentration of 2 μg mL^−1 and left to sit for 3 hours to allow for the reaction to proceed. Tubes were imaged before and after PodA30-162 treatment. For experiments using solubilized gDNA, a 400 μg mL^−1 solution of gDNA was mixed with PYO and allowed to equilibrate for 6 hours. The PYO gDNA mixture was amended with 1 μg mL^−1 PodA30-162 and loss of PYO was monitored on a BioTek Synergy 4 microplate reader (BioTek) plate reader at 690 nm. Standards were included to quantify PYO loss over time. To assess biofilm formation in the presence of PodA30-162, biofilms were grown in Nunc Lab-Tek chambered coverglass slides (8-well, 0.8 cm^2 area, supplier #155411) using a modified protocol (22). PA14 was inoculated into succinate minimal medium and grown overnight to stationary phase. Cells were resuspended in fresh medium and diluted to a starting OD500 of 0.5 in succinate minimal medium. PodA30-162 (2 μg mL^−1, final concentration) or DNase (20 μg mL^−1) (22) was added and 250 μL was added to each well of the 8-well chambered coverglass. Cultures were grown for 5 hours at 37° C. and 100 rpm (Innova 44 shaking incubator, New Brunswick) in a humidified chamber. After incubation, liquid was removed from each well by drawing with a pipet tip placed in the corner of each well and chambers were washed twice with 400 μL of biofilm wash (Tris buffer, pH 7.6 and 100 mM NaCl) to remove planktonic and loosely bound cells. Attached biomass was stained by adding 450 μL biofilm wash containing 10 μg mL^−1 DAPI (4′,6-diamidino-2-phenylindole) (Santa Cruz Biotechnology). Surface associated biomass was imaged on a Leica TCS SPE confocal microscope with a ACS APO 40×/1.15 oil immersion objective. A 405 nm solid-state laser was used for excitation, and data was collected from 420-500 nm. […]

[5] = PYO demethylation by purified PodA30-162 and mutants (spectrophotometric/HPLC); type: biochemical; conditions: PYO demethylation; 60 nM mutant protein
Method: Enzyme activity and analysis. PYO demethylation by PodA30-162 was first determined by HPLC analysis as described previously (6, 9). To detect formaldehyde evolution, 150 nM protein was mixed with 50 μM PYO in 1 mL of 20 mM Tris pH 7.6 amended with 200 μL Nash reagent (2 M ammonium acetate, 50 mM acetic acid, 20 mM acetylacetone) and incubated at 55° C. until the reaction proceeded to completion (37, 38). The products were determined by HPLC using the same method as used for phenazine quantification. To monitor the formation of reduced phenazine, protein and 50 μM PYO were placed into an anaerobic chamber (Coy Laboratory Products) under an atmosphere of H2/N2 (5:95) and left overnight before allowing the reaction to proceed. To generate reduced PYO and 1-OH-PHZ, 50 μM were mixed with 1 mM sodium dithionite. The formation of reduced phenazine products was assayed visually under UV illumination (39). A BioTek Synergy 4 microplate reader (BioTek) plate reader in the anaerobic chamber was used to measure the emission spectrum of products with excitation at 250 nm. To determine the activity of PodA30-162 in the presence of glycerol, salts, or varying pH, 30 nM protein was suspended in 500 μL buffer, 40 μM PYO was mixed with 2× solution containing the buffer of interest (500 μL), and solutions were preheated to 30 C. For pH range measurements, the following buffers were used (40 mM, adjusted with KOH): acetic acid, pH 4.9; MES, pH 5.4 and 5.7; HEPES, pH 6.1; Tris, pH 6.9 and 7.5; Bicine, pH 7.8, 8.3 and 8.7; CHES, pH 9.4. To measure reaction rates, cuvettes containing the 2×PYO solution were placed in a Evolution 260Bio UV-Vis spectrophotometer (Thermo Scientific) and 500 μL of 30 nM protein was added at time 0 (15 nM protein and 20 μM PYO, final concentration). Reaction progress was monitored by measuring absorbance at 313 nm (40) every 0.5 seconds for 5 minutes. To measure kinetic parameters (kcat, Km) 15 nM protein was used in a reaction buffer of Bicine, pH 7.8; reactions were monitored as before with measurements every 0.2 seconds. The rate from the first 10 seconds of the reaction was used for the determination of kinetic parameters. Kinetic parameters were calculated in Microsoft Excel using the Solver plug-in and fitting data to ideal Michaelis-Menton plots with non-linear regression of experimental data (41). For measurements of the rate of methoxy-PMS demethylation, 300 nM protein was used and methoxy-PMS loss from the reaction mixture was monitored at 500 nm wavelength. Methoxy-PMS was purchased from TCI America. For assays with mutant proteins, 60 nM protein was used. The stimulatory effects of flavin or 2-oxoglutarate addition was determined by adding 25 μM flavin or 2-oxoglutarate to 20 μM PYO and 15 nM PodA30-162 and monitoring the reaction. Experiments testing alternative substrates were carried out using 1 mL reaction volumes containing 20 mM Tris (pH 7.6) and 50 μg mL^−1 PodA30-162. Alternative substrates tested were 10-methylphenothiazine (AlfaAesar), phenazine methosulfate (AlfaAesar), methoxyphenazine methosulfate (TCI America), and 4-keto-N-ethylphenazine. 4-keto-N-ethylphenazine was synthesized from phenazine ethosulfate (Sigma-Aldrich) by incubating under fluorescent light overnight followed by purification by HPLC as described (6, 42). As phenazine methosulfate is light sensitive and spontaneously converts to PYO in the presence of light, all reactions were carried out in the dark, and activity was assessed by end point analysis by HPLC after 4 hours (9).

Row | Molecule | # of Redox cycles over 7 days (PA14 [1]) | Support survival? (PA14 [1]) | Reduction by PA14? (PA14 [2]) | E^0, (vs. NHE) [3] | further results
1 | O=C1c2ccc(S(=O)(=O)O)cc2C(=O)c2ccc(S(=O)(=O)O)cc21 [2,6-AQDS] | No cycle | No | Yes (very slowly) | −184^d mV | 
2 | CCn1c2cccc(=O)c-2nc2ccccc21 [4-keto-N-ethylphenazine] |  |  |  |  | demethylation of alternative substrate by PodA30-162 (HPLC end point) (PodA30-162): not demethylated or de-ethylated
3 | CN1c2ccccc2Sc2ccccc21 [10-methylphenothiazine] |  |  |  |  | demethylation of alternative substrate by PodA30-162 (HPLC end point) (PodA30-162): not demethylated or de-ethylated
4 | O=C(O)c1cccc2nc3ccccc3nc12 [PCA, Phenazine-1-carboxylate] | 22 | Yes | Yes | −114^a mV | 
5 | C[n+]1ccc(-c2cc[n+](C)cc2)cc1 [Paraquat] | No cycle | No | No | −446^e mV | 
6 | COS(=O)(=O)[O-].COc1cccc2c1nc1ccccc1[n+]2C [methoxy-PMS, methoxyphenazine methosulfate] |  |  |  |  | methoxy-PMS demethylation over time (PodA30-162; 300 nM protein, 500 nm): initial burst of activity followed by a slower steady state; also recorded: reaction rate slows significantly after an initial burst
7 | DNase [reference compound] |  |  |  |  | biofilm surface coverage [4]: inhibited biofilms; also recorded: decreased surface coverage
8 | B1 |  |  |  |  | wild type activity [5]: ~25%
